The values below come from patent US10548317B2, “Pesticidally active pyrazole derivatives” (SYNGENTA PARTICIPATIONS AG, priority 2015, dated 2020).

By melting point is commonly meant the temperature of the solid-liquid transition. `Cn1nc(C(F)(F)C(F)(F)F)c(C(F)(F)F)c1-n1cc(-n2cnc(C(=O)NC3CC3)c2)cn1` [Compound 49] displayed a melting point of 190 to 191 °C. The result for `Cn1nc(C(F)(F)C(F)(F)F)c(C(F)(F)F)c1-n1cc(-c2cc(C(=O)NC3(C#N)CC3)c(Br)s2)cn1` [Compound 61] reads 184 to 185 °C. The figure for `Cn1nc(C(F)(F)C(F)(F)F)c(C(F)(F)F)c1-n1cc(-c2cc(C(=O)NC3CC3)c(Br)s2)cn1` [Compound 57] is 192 to 193 °C; for `Cn1nc(C(F)(F)C(F)(F)F)c(C(F)(F)F)c1-n1cc(-n2cc(C(=O)NC3CC3)nn2)cn1` [Compound 68] it is 242 to 244 °C; for `Cn1nc(C(F)(F)C(F)(F)F)c(C(F)(F)F)c1-n1cc(-c2cnc(C(=O)NC3(C#N)CC3)s2)cn1` [Compound 64] it is 158 to 159 °C. The result for `Cn1nc(C(F)(F)C(F)(F)F)c(C(F)(F)F)c1-n1cc(-c2cnc(C(=O)NC3CC3)s2)cn1` [Compound 65] reads 132 to 133 °C; that for `COc1sc(-c2cnn(-c3c(C(F)(F)F)c(C(F)(F)C(F)(F)F)nn3C)c2)cc1C(=O)NC1CC1` [Compound 56], 152 to 153 °C. The compound `Cn1nc(C(F)(F)C(F)(F)F)c(C(F)(F)F)c1-n1cc(-n2cnc(C(=O)NC3(C#N)CC3)c2)cn1` [Compound 62] displayed a melting point of 195 to 197 °C. In the case of `Cn1nc(C(F)(F)C(F)(F)F)c(C(F)(F)F)c1-n1cc(-n2cc(C(=O)NC3(C#N)CC3)nn2)cn1` [Compound 67], the melting point is more than 250 °C. On to `Cn1nc(C(F)(F)C(F)(F)F)c(C(F)(F)F)c1-n1cc(-c2cc(C(=O)NC3CC3)no2)cn1` [Compound 66], for which the melting point lay in the range of 181 to 183 °C.

As to `Cn1nc(C(F)(F)C(F)(F)F)c(C(F)(F)F)c1-n1cc(-c2cc(C(=O)NC3CC3)c(C#N)s2)cn1` [Compound 59], the melting point was 171 to 172 °C. Regarding `Cn1nc(C(F)(F)C(F)(F)F)c(C(F)(F)F)c1-n1cc(-c2cc(C(=O)NC3CC3)sn2)cn1` [Compound 63], the melting point fell in the range of 146 to 148 °C.
